Earlier results, collected in patent US20020132320A1, “Glycoconjugate synthesis using a pathway-engineered organism” (priority 2001, published 2002).

What was measured:
CMP-NeuNAc synthetase = target: T1, CMP-NeuNAc synthetase (Escherichia coli O18:K1:H7, UniProt P13266); conditions: enzyme purified from E. coli K1; read-out: apparent Km
T1 construct: host or cells: E. coli K1

[1] = system: UDP-GalNAc pyrophosphorylase; conditions: substrate of purified UDP-GalNAc pyrophosphorylase
E. coli NanA = E. coli NanA (Escherichia coli, UniProt P0A6L4); conditions: cleavage reaction
[2] = target: Hyaluronan synthase (spHAS) (Streptococcus pyogenes, UniProt P0C0H0)
[3] = relative to morphine

Nc1ccn([C@@H]2O[C@H](COP(=O)(O)OP(=O)(O)OP(=O)(O)O)[C@@H](O)[C@H]2O)c(=O)n1 [CTP, Cytosine 5′-triphosphate]
Km (CMP-NeuNAc synthetase): 310 µM

CC(=O)N[C@H]1C(OP(=O)(O)O)O[C@H](CO)[C@H](O)[C@@H]1O (stereo partly shown) [GalNAc-1-P, N-acetylgalactosamine-1-phosphate]
Km [1]: 290 µM

CC(=O)NC1C(OP(=O)(O)O)OC(CO)C(O)C1O (stereo not shown) [GlcNAc-1-P]
Km [1]: 1100 µM

CC(=O)N[C@H]1[C@H]([C@H](O)[C@H](O)CO)OC(O)(C(=O)O)C[C@@H]1O (stereo partly shown) [NeuNAc, N-acetylneuraminic acid]
Km (E. coli NanA): 4300 µM

O=C(O)[C@H]1O[C@H](OP(=O)(O)OP(=O)(O)OC[C@H]2O[C@@H](n3ccc(=O)[nH]c3=O)[C@H](O)[C@@H]2O)[C@H](O)[C@@H](O)[C@@H]1O [UDP-GlcA, uridine 5′-diphosphoglucuronic acid]
Km [2]: 40 ± 4 µM

CC(=O)N[C@H]1[C@@H](OP(=O)(O)OP(=O)(O)OC[C@H]2O[C@@H](n3ccc(=O)[nH]c3=O)[C@H](O)[C@@H]2O)O[C@H](CO)[C@@H](O)[C@@H]1O [UDP-GlcNAc, uridine 5′-diphospho-N-acetylglucosamine]
Km [2]: 149 ± 3 µM

CN1CC[C@]23c4c5ccc(O)c4O[C@H]2[C@@H](O[C@@H]2O[C@H](C(=O)O)[C@@H](O)[C@H](O)[C@H]2O)C=C[C@H]3[C@H]1C5 [morphine-6-O-glucuronide]
times more active than morphine [3]: 50 times
